The values below come from patent US11447517B2, “Galactoside inhibitor of galectins” (GALECTO BIOTECH AB, priority 2018, dated 2022).

galectin-3, sequence (P17931 whole entry): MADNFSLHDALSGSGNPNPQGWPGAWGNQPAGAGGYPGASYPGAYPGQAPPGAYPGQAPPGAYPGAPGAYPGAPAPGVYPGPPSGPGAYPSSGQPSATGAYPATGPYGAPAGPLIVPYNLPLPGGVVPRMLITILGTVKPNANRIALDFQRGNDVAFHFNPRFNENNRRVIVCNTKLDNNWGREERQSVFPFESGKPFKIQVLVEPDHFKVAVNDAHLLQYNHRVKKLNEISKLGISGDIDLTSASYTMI

This assay concerns the target galectin-3 (Homo sapiens (Human), UniProt P17931). The assay is described as follows: Fluorescence anisotropy assay, inhibition of galectin / fluorescein tagged saccharide probe interaction. It counts as binding. As for the experimental part:
Evaluation of Kd Values The affinity of Example 1-71 for galectins were determined by a fluorescence anisotropy assay where the compound was used as an inhibitor of the interaction between galectin and a fluorescein tagged saccharide probe as described Sörme, P., Kahl-Knutsson, B., Huflejt, M., Nilsson, U. J., and Leffler H. (2004) Fluorescence polarization as an analytical tool to evaluate galectin-ligand interactions. Anal. Biochem. 334: 36-47, (Sörme et al., 2004) and Monovalent interactions of Galectin-1 By Salomonsson, Emma; Larumbe, Amaia; Tejler, Johan; Tullberg, Erik; Rydberg, Hanna; Sundin, Anders; Khabut, Areej; Frejd, Torbjorn; Lobsanov, Yuri D.; Rini, James M.; et al, From Biochemistry (2010), 49(44), 9518-9532, (Salomonsson et al., 2010). […] 100 nM albumin was included as a carrier to prevent protein loss at such low concentration of galectin.
A general note: In fluorescence polarisation assays a small probe gives low polarisation when free and higher when bound to something large.
Usually Kd stands for the constant that tells how readily two partners part at equilibrium. Lower therefore signals higher affinity. The compound `COC1[C@@H](Sc2cc(Cl)ccc2C(=O)N(C)C)OC(CO)[C@H](O)[C@@H]1n1cc(-c2cc(F)c(F)c(F)c2)nn1` (stereo partly drawn) [Example 3, 4-Chloro-N,N-dimethyl-benzamide-2-yl 3-deoxy-3-[4-(3,4,5-trifluorophenyl)-1H-1,2,3-triazol-1-yl]-2-O-methyl-1-thio-α-D-galactopyranoside] registered a Kd of 8 nM. Then `COC1[C@@H](Sc2cc(Cl)ccc2C(=O)N(C)C)OC(CO)[C@H](O)[C@@H]1n1cc(-c2cc(F)c(Cl)c(F)c2)nn1` (stereo partly drawn) [Example 4, 4-Chloro-N,N-dimethyl-benzamide-2-yl 3-[4-(4-chloro-3,5-difluorophenyl)-1H-1,2,3-triazol-1-yl]-3-deoxy-2-O-methyl-1-thio-α-D-galactopyranoside], with 14 nM; and `OC[C@H]1O[C@H](Sc2cncc(Br)c2)[C@H](OCC(O)C(F)(F)F)[C@@H](n2cc(-c3cc(F)c(F)c(F)c3)nn2)[C@H]1O` (stereo partly drawn) [Example 5, 5-Bromopyridin-3-yl 3-deoxy-3-[4-(3,4,5-trifluorophenyl)-1H-1,2,3-triazol-1-yl]-2-O-(1,1,1-trifluoro-2-hydroxyprop-3-yl)-1-thio-α-D-galactopyranoside], with 82 nM; and `CO[C@@H]1[C@@H](n2cc(-c3cc(F)c(Cl)c(F)c3)nn2)[C@@H](O)[C@@H](CO)O[C@@H]1Sc1cc(Cl)ccc1C(=O)N1CCCCC1` [Example 6, 2-(N-piperidinyl-carbonyl)-5-chlorophenyl 3-[4-(4-chloro-3,5-difluorophenyl)-1H-1,2,3-triazol-1-yl]-3-deoxy-2-O-methyl-1-thio-α-D-galactopyranoside], with 120 nM. Then `COC1[C@@H](Sc2cc(Cl)cnc2N2CC3(COC3)C2)OC(CO)[C@H](O)[C@@H]1n1cc(-c2cc(F)c(F)c(F)c2)nn1` (stereo partly drawn) [Example 10, 5-Chloro-2-{N-(2-oxa)-6-azaspiro[3.3]heptanyl}-pyridin-3-yl 3-deoxy-3-[4-(3,4,5-trifluorophenyl)-1H-1,2,3-triazol-1-yl]-2-O-methyl-1-thio-α-D-galactopyranoside], with 33 nM; and `COC1[C@@H](Sc2cc(Cl)cnc2N2CC3(COC3)C2)OC(CO)[C@H](O)[C@@H]1n1cc(-c2cc(F)c(Cl)c(F)c2)nn1` (stereo partly drawn) [Example 11, 5-Chloro-2-{N-(2-oxa)-6-azaspiro[3.3]heptanyl}-pyridin-3-yl 3-[4-(4-chloro-3,5-difluorophenyl)-1H-1,2,3-triazol-1-yl]-3-deoxy-2-O-methyl-1-thio-α-D-galactopyranoside], with 49 nM. To `CO[C@@H]1[C@@H](n2cc(-c3cc(F)c(C)c(F)c3)nn2)[C@@H](O)[C@@H](CO)O[C@@H]1Sc1cc(Cl)cnc1C#N` [Example 12, 5-Chloro-2-cyanopyridin-3-yl 3-deoxy-3-[4-(3,5-difluoro-4-methylphenyl)-1H-1,2,3-triazol-1-yl]-2-O-methyl-1-thio-α-D-galactopyranoside] belongs 12 nM; to `CO[C@@H]1[C@@H](n2cc(-c3cc(F)c(C)c(F)c3)nn2)[C@@H](O)[C@@H](CO)O[C@@H]1Sc1cc(Cl)ccc1C#N` [Example 14, 5-Chloro-2-cyanophenyl 3-deoxy-3-[4-(3,5-difluoro-4-methylphenyl)-1H-1,2,3-triazol-1-yl]-2-O-methyl-1-thio-α-D-galactopyranoside], 50 nM; to `CCO[C@@H]1[C@@H](n2cc(-c3cc(F)c(F)c(F)c3)nn2)[C@@H](O)[C@@H](CO)O[C@@H]1Sc1cc(Cl)cnc1C#N` [Example 16, 5-Chloro-2-cyanopyridin-3-yl 3-deoxy-2-O-ethyl-3-[4-(3,4,5-trifluorophenyl)-1H-1,2,3-triazol-1-yl]-1-thio-α-D-galactopyranoside], 59 nM. In the case of `CCO[C@@H]1[C@@H](n2cc(-c3cc(F)c(F)c(F)c3)nn2)[C@@H](O)[C@@H](CO)O[C@@H]1Sc1cncc(Br)c1` [Example 17, 5-Bromopyridin-3-yl 3-deoxy-3-[4-(3,4,5-trifluorophenyl)-1H-1,2,3-triazol-1-yl]-2-O-ethyl-1-thio-α-D-galactopyranoside], the dissociation constant (Kd) turned out to be 74 nM. The compound `CC(C)O[C@@H]1[C@@H](n2cc(-c3cc(F)c(F)c(F)c3)nn2)[C@@H](O)[C@@H](CO)O[C@@H]1Sc1cncc(Br)c1` [Example 18, 5-Bromopyridin-3-yl 3-deoxy-3-[4-(3,4,5-trifluorophenyl)-1H-1,2,3-triazol-1-yl]-2-O-isopropyl-1-thio-α-D-galactopyranoside] showed a dissociation constant (Kd) of 150 nM. In turn, `OC[C@H]1O[C@H](Sc2cncc(Br)c2)[C@H](OCCF)[C@@H](n2cc(-c3cc(F)c(F)c(F)c3)nn2)[C@H]1O` [Example 19, 5-Bromopyridin-3-yl 3-deoxy-3-[4-(3,4,5-trifluorophenyl)-1H-1,2,3-triazol-1-yl]-2-O-(2-fluoroethyl)-1-thio-α-D-galactopyranoside] yielded a Kd of 20 nM.

`CNCCO[C@@H]1[C@@H](n2cc(-c3cc(F)c(F)c(F)c3)nn2)[C@@H](O)[C@@H](CO)O[C@@H]1Sc1cncc(Br)c1` [Example 20, 5-Bromopyridin-3-yl 3-deoxy-3-[4-(3,4,5-trifluorophenyl)-1H-1,2,3-triazol-1-yl]-2-O-[2-(methylamino)ethyl]-1-thio-α-D-galactopyranoside] yielded a Kd of 71 nM. This Kd is about 3.5-fold higher than that of the compound before. Then `OCCO[C@@H]1[C@@H](n2cc(-c3cc(F)c(Cl)c(F)c3)nn2)[C@@H](O)[C@@H](CO)O[C@@H]1Sc1ccc(Cl)c(Cl)c1` [Example 21, 3,4-Dichlorophenyl 3-[4-(4-chloro-3,5-difluorophenyl)-1H-1,2,3-triazol-1-yl]-3-deoxy-2-O-(2-hydroxyethyl)-1-thio-α-D-galactopyranoside], with 58 nM. Then `COC1[C@@H](Sc2cc(Cl)c(C#N)nc2N2CC3(COC3)C2)OC(CO)[C@H](O)[C@@H]1n1cc(-c2cc(F)c(Cl)c(F)c2)nn1` (stereo partly drawn) [Example 22, 5-Chloro-6-cyano-2-{N-(2-oxa)-6-azaspiro[3.3]heptanyl}-pyridin-3-yl 3-[4-(4-chloro-3,5-difluorophenyl)-1H-1,2,3-triazol-1-yl]-3-deoxy-2-O-methyl-1-thio-α-D-galactopyranoside], with 60 nM; and `COC1[C@@H](Sc2cc(Cl)c(C#N)nc2N2CC3(COC3)C2)OC(CO)[C@H](O)[C@@H]1n1cc(-c2cc(F)c(F)c(F)c2)nn1` (stereo partly drawn) [Example 23, 5-Chloro-6-cyano-2-{N-(2-oxa)-6-azaspiro[3.3]heptanyl}-pyridin-3-yl 3-deoxy-3-[4-(3,4,5-trifluorophenyl)-1H-1,2,3-triazol-1-yl]-2-O-methyl-1-thio-α-D-galactopyranoside], with 37 nM. Then `CO[C@@H]1[C@@H](n2cc(-c3cc(F)c(F)c(F)c3)nn2)[C@@H](O)[C@@H](CO)O[C@@H]1Sc1cc(Cl)cnc1-c1cncnc1` [Example 24, 5-Chloro-2-(pyrimidin-5-yl)pyridin-3-yl 3-deoxy-3-[4-(3,4,5-trifluorophenyl)-1H-1,2,3-triazol-1-yl]-2-O-methyl-1-thio-α-D-galactopyranoside], with 28 nM; and `CO[C@@H]1[C@@H](n2cc(-c3cc(F)c(F)c(F)c3)nn2)[C@@H](O)[C@@H](CO)O[C@@H]1Sc1cc(Cl)cnc1-c1ccccn1` [Example 25, 5-Chloro-2-(pyridin-2-yl)pyridin-3-yl 3-deoxy-3-[4-(3,4,5-trifluorophenyl)-1H-1,2,3-triazol-1-yl]-2-O-methyl-1-thio-α-D-galactopyranoside], with 24 nM; and `CO[C@@H]1[C@@H](n2cc(-c3cc(F)c(F)c(F)c3)nn2)[C@@H](O)[C@@H](CO)O[C@@H]1Sc1cc(Cl)cnc1-c1cccnc1` [Example 26, 5-Chloro-2-(pyridin-3-yl)pyridin-3-yl 3-deoxy-3-[4-(3,4,5-trifluorophenyl)-1H-1,2,3-triazol-1-yl]-2-O-methyl-1-thio-α-D-galactopyranoside], with 55 nM. `CO[C@@H]1[C@@H](n2cc(-c3cc(F)c(F)c(F)c3)nn2)[C@@H](O)[C@@H](CO)O[C@@H]1Sc1cc(Cl)cnc1-c1ccncc1` [Example 27, 5-Chloro-2-(pyridin-4-yl)pyridin-3-yl 3-deoxy-3-[4-(3,4,5-trifluorophenyl)-1H-1,2,3-triazol-1-yl]-2-O-methyl-1-thio-α-D-galactopyranoside] yielded a dissociation constant Kd of 56 nM. The Kd values of the last two compounds are within 1.5-fold of each other. Then `CO[C@@H]1[C@@H](n2cc(-c3cc(F)c(F)c(F)c3)nn2)[C@@H](O)[C@@H](CO)O[C@@H]1Sc1cc(Cl)cnc1C1=CCNCC1` [Example 28, 5-Chloro-2-(1,2,3,6-tetrahydropyridin-4-yl)pyridin-3-yl 3-deoxy-3-[4-(3,4,5-trifluorophenyl)-1H-1,2,3-triazol-1-yl]-2-O-methyl-1-thio-α-D-galactopyranoside], with 36 nM; and `CO[C@@H]1[C@@H](n2cc(-c3cc(F)c(F)c(F)c3)nn2)[C@@H](O)[C@@H](CO)O[C@@H]1Sc1cc(Cl)cnc1C1=CCNC1` [Example 29, 5-Chloro-2-(3-pyrrolin-3-yl)pyridin-3-yl 3-deoxy-3-[4-(3,4,5-trifluorophenyl)-1H-1,2,3-triazol-1-yl]-2-O-methyl-1-thio-α-D-galactopyranoside], with 68 nM; and `CO[C@@H]1[C@@H](n2cc(-c3cc(F)c(F)c(F)c3)nn2)[C@@H](O)[C@@H](CO)O[C@@H]1Sc1cc(Cl)cnc1-c1ncco1` [Example 30, 5-Chloro-2-(oxazol-2-yl)pyridin-3-yl 3-deoxy-3-[4-(3,4,5-trifluorophenyl)-1H-1,2,3-triazol-1-yl]-2-O-methyl-1-thio-α-D-galactopyranoside], with 56 nM.
